Measured values published in PubChem BioAssay (NCI).
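Method: 48-hour compound exposure of cells in 96-well plates, five concentrations, linear interpolation of endpoints. TGI: total growth inhibition.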

Key:
Test in all cases: NCI tumour cell line growth inhibition, 48 h
[1] = test system: MCF7 breast
[2] = test system: P388 leukemia
[3] = test system: SF-295 CNS
[4] = test system: KM20L2 colon
[5] = test system: HOP-18 NSCLC
[6] = test system: NCI-H522 lung
[7] = test system: OVCAR-3 ovarian
[8] = test system: A549 NSCLC
[9] = test system: A498 renal
[10] = test system: SK-MEL-28 melanoma
[11] = test system: XF 498 CNS
[12] = test system: OVCAR-5 ovarian
[13] = test system: RXF 393 renal
[14] = test system: COLO 205 colon
[15] = test system: HCT-116 colon
[16] = test system: SK-OV-3 ovarian
[17] = test system: HOP-62 NSCLC
[18] = test system: LOX IMVI melanoma
[19] = test system: OVCAR-4 ovarian
[20] = test system: K-562 leukemia
[21] = test system: NCI-H460 lung
[22] = test system: IGROV1 ovarian
[23] = test system: EKVX NSCLC
[24] = test system: SF-268 CNS
[25] = test system: SK-MEL-5 melanoma
[26] = test system: SK-MEL-2 melanoma
[27] = test system: SN12K1 renal
[28] = test system: UACC-257 melanoma
[29] = test system: SNB-78 CNS
[30] = test system: MALME-3M melanoma
[31] = test system: DMS 114 small cell lung
[32] = test system: P388/ADR leukemia
[33] = test system: NCI/ADR-RES ovarian
[34] = test system: U251 CNS
[35] = test system: OVCAR-8 ovarian
[36] = test system: DMS 273 small cell lung
[37] = test system: UACC-62 melanoma
[38] = test system: SN12C renal
[39] = test system: HOP-92 NSCLC
[40] = test system: SF-539 CNS
[41] = test system: CCRF-CEM leukemia
[42] = test system: MOLT-4 leukemia
[43] = test system: CAKI-1 renal
[44] = test system: SW-620 colon
[45] = test system: M19-MEL melanoma
[46] = test system: RPMI-8226 leukemia
[47] = test system: DLD-1 colon
[48] = test system: NCI-H226 lung
[49] = test system: HL-60(TB) leukemia
[50] = test system: HCC-2998 colon
[51] = test system: HT29 colon
[52] = test system: UO-31 renal
[53] = test system: KM12 colon
[54] = test system: SNB-19 CNS
[55] = test system: NCI-H23 lung
[56] = test system: SNB-75 CNS
[57] = test system: HCT-15 colon
[58] = test system: 786-0 renal
[59] = test system: ACHN renal
[60] = test system: M14 melanoma
[61] = test system: RXF-631 renal
[62] = test system: LXFL 529 NSCLC
[63] = test system: TK-10 renal
[64] = test system: SR leukemia

For `COc1cc2c(cc1OC)C(C(c1ccccc1)c1ccccc1)N(C)CC2` (centres undefined), which TGI [1] is on record?
Its TGI is > 100 µM.

And the TGI [2]?
Its TGI is > 100 µM.

What about the TGI [3] of the same compound?
The TGI was > 100 µM.

And the TGI [4]?
Its TGI is > 73.7 µM.

What about the TGI [5] of the same compound?
Its TGI is > 100 µM.

What about the TGI [6] of the same compound?
Its TGI is > 100 µM.

And the TGI [7]?
Its TGI is > 100 µM.

And the TGI [8]?
The TGI was > 100 µM.

And the TGI [9]?
The TGI was > 100 µM.

And the TGI [10]?
The TGI was > 100 µM.

And the TGI [11]?
The TGI was 97.8 µM.

What about the TGI [12] of the same compound?
The TGI was > 100 µM.

And the TGI [13]?
Its TGI is 60.2 µM.

What about the TGI [14] of the same compound?
Its TGI is 33.5 µM.

And the TGI [15]?
The TGI was > 100 µM.

What about the TGI [16] of the same compound?
The TGI was > 100 µM.

What about the TGI [17] of the same compound?
The TGI was > 100 µM.

What about the TGI [18] of the same compound?
Its TGI is > 100 µM.

And the TGI [19]?
The TGI was > 100 µM.

And the TGI [20]?
Its TGI is > 100 µM.

And the TGI [21]?
Its TGI is > 100 µM.

What about the TGI [22] of the same compound?
Its TGI is > 100 µM.

And the TGI [23]?
The TGI was > 100 µM.

What about the TGI [24] of the same compound?
Its TGI is > 100 µM.

And the TGI [25]?
Its TGI is 47.6 µM.

What about the TGI [26] of the same compound?
Its TGI is > 100 µM.

And the TGI [27]?
The TGI was > 65.6 µM.

What about the TGI [28] of the same compound?
The TGI was > 86.9 µM.

What about the TGI [29] of the same compound?
Its TGI is > 100 µM.

What about the TGI [30] of the same compound?
Its TGI is 56.2 µM.

And the TGI [31]?
Its TGI is > 100 µM.

What about the TGI [32] of the same compound?
The TGI was > 100 µM.

And the TGI [33]?
The TGI was > 100 µM.

And the TGI [34]?
The TGI was > 100 µM.

What about the TGI [35] of the same compound?
Its TGI is > 100 µM.

What about the TGI [36] of the same compound?
Its TGI is > 100 µM.

What about the TGI [37] of the same compound?
The TGI was > 100 µM.

And the TGI [38]?
The TGI was > 100 µM.

What about the TGI [39] of the same compound?
The TGI was > 70.8 µM.

What about the TGI [40] of the same compound?
The TGI was > 100 µM.

And the TGI [41]?
Its TGI is > 100 µM.

And the TGI [42]?
The TGI was > 100 µM.

What about the TGI [43] of the same compound?
The TGI was > 100 µM.

And the TGI [44]?
Its TGI is > 100 µM.

And the TGI [45]?
The TGI was > 100 µM.

What about the TGI [46] of the same compound?
The TGI was > 100 µM.

What about the TGI [47] of the same compound?
The TGI was > 100 µM.

What about the TGI [48] of the same compound?
The TGI was > 100 µM.

What about the TGI [49] of the same compound?
Its TGI is > 100 µM.

What about the TGI [50] of the same compound?
The TGI was 63.8 µM.

What about the TGI [51] of the same compound?
The TGI was > 100 µM.

What about the TGI [52] of the same compound?
Its TGI is > 100 µM.

And the TGI [53]?
The TGI was > 100 µM.

What about the TGI [54] of the same compound?
The TGI was > 100 µM.

What about the TGI [55] of the same compound?
The TGI was > 100 µM.

What about the TGI [56] of the same compound?
Its TGI is 99.5 µM.

And the TGI [57]?
The TGI was > 100 µM.

What does the source list for `N#CC(C(=O)/C(=N\NC(N)=O)C(C#N)c1ccc(Cl)cc1)c1ccc(Cl)cc1` (centres undefined)?
TGI [58]: > 100 µM; TGI [3]: > 100 µM; TGI [4]: > 100 µM; TGI [5]: > 100 µM; TGI [6]: > 100 µM; TGI [7]: > 100 µM; TGI [8]: > 100 µM; TGI [9]: > 100 µM; TGI [10]: > 100 µM; TGI [11]: > 100 µM; TGI [12]: > 100 µM; TGI [13]: > 100 µM; TGI [14]: > 100 µM; TGI [15]: > 100 µM; TGI [16]: > 100 µM; TGI [17]: > 100 µM; TGI [18]: > 100 µM; TGI [19]: > 100 µM; TGI [20]: > 100 µM; TGI [21]: > 100 µM; TGI [22]: > 100 µM; TGI [23]: > 100 µM; TGI [24]: > 100 µM; TGI [25]: > 100 µM; TGI [26]: > 100 µM; TGI [59]: > 100 µM; TGI [28]: > 100 µM; TGI [29]: > 100 µM; TGI [30]: > 100 µM; TGI [31]: > 100 µM; TGI [60]: > 100 µM; TGI [34]: > 100 µM; TGI [35]: > 100 µM; TGI [37]: > 100 µM; TGI [38]: > 100 µM; TGI [39]: > 100 µM; TGI [40]: > 100 µM; TGI [41]: > 100 µM; TGI [42]: > 100 µM; TGI [44]: > 100 µM; TGI [45]: > 100 µM; TGI [46]: > 100 µM; TGI [47]: > 100 µM; TGI [48]: > 100 µM; TGI [49]: > 100 µM; TGI [51]: > 100 µM; TGI [52]: > 100 µM; TGI [53]: > 100 µM; TGI [54]: > 100 µM; TGI [55]: > 100 µM; TGI [61]: > 100 µM; TGI [57]: > 100 µM; TGI [62]: > 100 µM

Which TGI [58] does the source give for `CN1CCC(=O)/C(=C/c2ccccc2)C1` here?
Its TGI is 25.2 µM.

What about the TGI [3] of the same compound?
Its TGI is 29.3 µM.

And the TGI [4]?
The TGI was 26.6 µM.

And the TGI [5]?
Its TGI is 32.2 µM.

And the TGI [6]?
Its TGI is 33.6 µM.

And the TGI [7]?
The TGI was 26.2 µM.

What about the TGI [8] of the same compound?
Its TGI is 34.3 µM.

And the TGI [9]?
Its TGI is 33 µM.

What about the TGI [10] of the same compound?
Its TGI is 32.7 µM.

And the TGI [11]?
The TGI was 32.9 µM.

What about the TGI [12] of the same compound?
Its TGI is 29.3 µM.

What about the TGI [13] of the same compound?
The TGI was 26.8 µM.

And the TGI [14]?
Its TGI is 28.3 µM.

And the TGI [15]?
The TGI was 3.25 µM.

And the TGI [16]?
Its TGI is 35.3 µM.

And the TGI [17]?
The TGI was 40.2 µM.

What about the TGI [18] of the same compound?
Its TGI is 14.6 µM.

What about the TGI [19] of the same compound?
The TGI was 32.5 µM.

And the TGI [20]?
The TGI was > 28.9 µM.

What about the TGI [21] of the same compound?
The TGI was 41.8 µM.

What about the TGI [22] of the same compound?
The TGI was 33.5 µM.

And the TGI [23]?
The TGI was 40.5 µM.

What about the TGI [24] of the same compound?
The TGI was 43.2 µM.

And the TGI [25]?
The TGI was 33.4 µM.

And the TGI [26]?
The TGI was 42.1 µM.

What about the TGI [63] of the same compound?
The TGI was 29.6 µM.

What about the TGI [59] of the same compound?
Its TGI is 32.4 µM.

And the TGI [28]?
Its TGI is 28.2 µM.

What about the TGI [29] of the same compound?
Its TGI is 57.6 µM.

What about the TGI [30] of the same compound?
Its TGI is 35.4 µM.

What about the TGI [31] of the same compound?
Its TGI is 24 µM.

And the TGI [60]?
Its TGI is 26.7 µM.

What about the TGI [34] of the same compound?
The TGI was 19.1 µM.

And the TGI [35]?
Its TGI is 51.7 µM.

What about the TGI [36] of the same compound?
Its TGI is 14.9 µM.

What about the TGI [37] of the same compound?
Its TGI is 36.9 µM.

What about the TGI [38] of the same compound?
Its TGI is 28.4 µM.

What about the TGI [39] of the same compound?
Its TGI is 31.9 µM.

What about the TGI [40] of the same compound?
The TGI was 33.3 µM.

And the TGI [41]?
Its TGI is 50.7 µM.

What about the TGI [42] of the same compound?
The TGI was 34.3 µM.

What about the TGI [43] of the same compound?
The TGI was 33.9 µM.

What about the TGI [44] of the same compound?
Its TGI is 14.1 µM.

And the TGI [45]?
Its TGI is 18.4 µM.

And the TGI [46]?
The TGI was 15.7 µM.

What about the TGI [47] of the same compound?
Its TGI is 12.5 µM.

What about the TGI [48] of the same compound?
Its TGI is 32.2 µM.

And the TGI [49]?
The TGI was 41.5 µM.

What about the TGI [50] of the same compound?
Its TGI is 23.6 µM.

What about the TGI [51] of the same compound?
The TGI was 11 µM.

What about the TGI [52] of the same compound?
Its TGI is 32.6 µM.

What about the TGI [53] of the same compound?
Its TGI is 5.28 µM.

And the TGI [54]?
The TGI was 30.8 µM.

What about the TGI [55] of the same compound?
The TGI was 36.1 µM.

And the TGI [56]?
Its TGI is 20.8 µM.

And the TGI [61]?
Its TGI is 33.9 µM.

What about the TGI [57] of the same compound?
The TGI was > 50 µM.

And the TGI [62]?
Its TGI is 17.6 µM.

And the TGI [64]?
The TGI was 61.3 µM.
